Data: ChEMBL document CHEMBL5380816, “Inclusion of Nitrofurantoin into the Realm of Cancer Chemotherapy via Biology-Oriented Synthesis and Drug Repurposing” (J Med Chem, 2023)
pIC50: −log10 of the molar value. Calls of active or inactive are those of the source. No cut-off for these calls is given here.

Columns and labels:
[1] = Cytotoxicity in human WI-38 cells assessed as reduction in cell viability incubated for 72 hrs by MTT assay; type: toxicity, cell-based
[2] = Cytotoxicity in human WI-38 cells assessed as safe dose incubated for 72 hrs by MTT assay; type: toxicity, cell-based; details: read-out: EC100
Caco-2 [3] = test: Anticancer activity against human Caco-2 cells incubated for 72 hrs by MTT assay; type: functional, cell-based; details: Caco-2, 72 h
[4] = Selectivity index, ratio of IC50 for human WI-38 cells to IC50 for human Caco-2 cells
MCF7 [5] = test: Anticancer activity against human MCF7 cells incubated for 72 hrs by MTT assay; type: functional, cell-based; details: MCF7, 72 h
[6] = Selectivity index, ratio of IC50 for human WI-38 cells to IC50 for human MCF7 cells; type: toxicity; details: WI-38 cells versus MCF7 cells, read-out: Ratio IC50
HeLa [7] = test: Anticancer activity against human HeLa cells incubated for 72 hrs by MTT assay; type: functional, cell-based
[8] = Selectivity index, ratio of IC50 for human WI-38 cells to IC50 for human HeLa cells; type: toxicity; details: WI-38 cells versus HeLa cells, read-out: Ratio IC50
HepG2 [9] = test: Anticancer activity against human HepG2 cells incubated for 72 hrs by MTT assay; type: functional, cell-based; details: HepG2, 72 h
[10] = Selectivity index, ratio of IC50 for human WI-38 cells to IC50 for human HepG2 cells; type: toxicity; details: WI-38 cells versus HepG2 cells, read-out: Ratio IC50
MCF7 [11] = test: Potency index, ratio of 5-fluorouracil IC50 to test compound IC50 for antiproliferative activity against human MCF7 cells; type: functional
HepG2 [12] = test: Potency index, ratio of 5-fluorouracil IC50 to test compound IC50 for antiproliferative activity against human HepG2 cells; type: functional
[13] = target: Tumour suppressor p53/oncoprotein Mdm2 (Homo sapiens, UniProt P04637+Q00987); test: Inhibition of human recombinant MDM2/p53 interaction measured after 10 mins by ELISA method; type: protein assay
Caco-2 [14] = test: Induction of apoptosis in human Caco-2 cells assessed as ratio of gene expression activity in pro apoptotic Bax to anti apoptotic Bcl-2; type: functional
MCF7 [15] = test: Induction of apoptosis in human MCF7 cells assessed as ratio of gene expression activity in pro apoptotic Bax to anti apoptotic Bcl-2; type: functional
HeLa [16] = test: Induction of apoptosis in human HeLa cells assessed as ratio of gene expression activity in pro apoptotic Bax to anti apoptotic Bcl-2; type: functional
HepG2 [17] = test: Induction of apoptosis in human HepG2 cells assessed as ratio of gene expression activity in pro apoptotic Bax to anti apoptotic Bcl-2; type: functional
Caco-2 [18] = test: cells; details: Homo sapiens, Caco-2, 72 h, read-out: Activity
MCF7 [19] = test: cells; details: Homo sapiens, MCF7, 72 h, read-out: Activity
Description: Induction of apoptosis in human MCF7 cells assessed as viable cells incubated at 0.027 uM for 72 hrs by annexin V-FITC based propidium iodide dual staining assay (Rvb = 99.9%)

HeLa [20] = test: cells; details: Homo sapiens, 72 h, read-out: Activity
Description: Induction of apoptosis in human HeLa cells assessed as viable cells incubated at 0.027 uM for 72 hrs by annexin V-FITC based propidium iodide dual staining assay (Rvb = 97.23%)

HepG2 [21] = test: cells; details: Homo sapiens, HepG2, 72 h, read-out: Activity
Description: Induction of apoptosis in human HepG2 cells assessed as viable cells incubated at 0.027 uM for 72 hrs by annexin V-FITC based propidium iodide dual staining assay (Rvb = 97.27%)

Caco-2 [22] = test: Induction of apoptosis in human Caco-2 cells assessed as pro-oxidant effect by measuring free radical generation measured at 0.097 uM after 72 hrs; type: functional, cell-based
MCF7 [23] = test: Induction of apoptosis in human MCF7 cells assessed as pro-oxidant effect by measuring free radical generation measured at 0.097 uM after 72 hrs; type: functional, cell-based
dsDNA [24] = test: Induction of damage in dsDNA (unknown origin) assessed as DNA disruption by measuring fluorescence intensity at 100 uM incubated for 2.5 hrs by EvaGreen based fluorescence plate reader analysis; type: nucleic-acid assay
dsDNA [25] = test: Induction of damage in dsDNA (unknown origin) assessed as DNA disruption by measuring amplitude at 100 uM incubated for 2.5 hrs by EvaGreen based fluorescence plate reader analysis; type: nucleic-acid assay
dsDNA [26] = test: Induction of damage in dsDNA (unknown origin) assessed as DNA disruption by measuring damage constant at 100 uM incubated for 2.5 hrs by EvaGreen based fluorescence plate reader analysis; type: nucleic-acid assay

Chain of Tumour suppressor p53/oncoprotein Mdm2 (P04637 whole entry): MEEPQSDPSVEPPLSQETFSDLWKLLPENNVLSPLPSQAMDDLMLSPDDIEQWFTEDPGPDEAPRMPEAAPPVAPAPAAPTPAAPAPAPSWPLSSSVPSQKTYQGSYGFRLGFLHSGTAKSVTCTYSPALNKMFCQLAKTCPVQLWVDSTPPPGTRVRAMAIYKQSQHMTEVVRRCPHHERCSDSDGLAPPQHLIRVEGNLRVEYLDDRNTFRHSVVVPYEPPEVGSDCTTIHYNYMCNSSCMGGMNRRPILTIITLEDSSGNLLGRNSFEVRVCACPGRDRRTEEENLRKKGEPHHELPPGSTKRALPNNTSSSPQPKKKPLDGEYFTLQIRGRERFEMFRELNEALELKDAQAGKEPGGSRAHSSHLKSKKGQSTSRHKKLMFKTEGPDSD
Chain of Tumour suppressor p53/oncoprotein Mdm2 (Q00987 whole entry): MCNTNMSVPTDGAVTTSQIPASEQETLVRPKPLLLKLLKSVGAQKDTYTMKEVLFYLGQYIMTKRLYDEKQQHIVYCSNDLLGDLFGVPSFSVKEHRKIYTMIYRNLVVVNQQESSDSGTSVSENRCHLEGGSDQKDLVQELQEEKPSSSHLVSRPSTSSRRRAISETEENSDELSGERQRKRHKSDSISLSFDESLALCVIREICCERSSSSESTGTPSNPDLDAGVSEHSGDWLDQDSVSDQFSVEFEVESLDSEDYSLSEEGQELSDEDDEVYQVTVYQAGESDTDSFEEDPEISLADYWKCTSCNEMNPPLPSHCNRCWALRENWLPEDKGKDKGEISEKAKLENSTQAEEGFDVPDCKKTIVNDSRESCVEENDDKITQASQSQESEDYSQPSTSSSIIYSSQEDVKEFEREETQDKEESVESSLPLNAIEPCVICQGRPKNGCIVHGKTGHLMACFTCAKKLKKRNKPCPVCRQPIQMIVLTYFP

O=C1CN(/N=C/c2ccc([N+](=O)[O-])o2)C(=O)N1Cc1cn(-c2ccc([N+](=O)[O-])cc2)nn1
IC50 at 72 h [1]: 183 nM
MNTC at 72 h [2]: 26 nM
pIC50 (Caco-2 [3]): 6.85
Ratio IC50 [4]: 1.32
pIC50 (MCF7 [5]): 6.93
selectivity ratio [6]: 1.56
pIC50 (HeLa [7]): 6.95
selectivity ratio [8]: 1.62
pIC50 (HepG2 [9]): 7.20
selectivity ratio [10]: 2.92
Ratio IC50 (MCF7 [11]): 1.2
Ratio IC50 (HepG2 [12]): 1.2

O=C1CN(/N=C/c2ccc([N+](=O)[O-])o2)C(=O)N1 [NITROFURANTOIN]
IC50 at 72 h [1]: 162 nM
MNTC at 72 h [2]: 27 nM
pIC50 (Caco-2 [3]): 6.94
Ratio IC50 [4]: 1.41
pIC50 (HeLa [7]): 6.78
selectivity ratio [8]: 0.98
pIC50 [13]: 5.80
Ratio (Caco-2 [14]): 1.385
Ratio (MCF7 [15]): 0.958
Ratio (HeLa [16]): 1.42
Ratio (HepG2 [17]): 1.002
viability at 0.027 µM (Caco-2 [18]): 85%
viability at 0.027 µM (MCF7 [19]): 98.8%
viability at 0.027 µM (HeLa [20]): 84.8%
viability at 0.027 µM (HepG2 [21]): 98.7%

O=C1CN(/N=C/c2ccc([N+](=O)[O-])o2)C(=O)N1Cc1cn(-c2ccccc2)nn1
IC50 at 72 h [1]: 220 nM
MNTC at 72 h [2]: 36 nM
pIC50 (Caco-2 [3]): 6.84
Ratio IC50 [4]: 1.53
pIC50 (MCF7 [5]): 6.89
selectivity ratio [6]: 1.74
pIC50 (HeLa [7]): 7.08
selectivity ratio [8]: 2.61
pIC50 (HepG2 [9]): 6.98
selectivity ratio [10]: 2.11
Ratio IC50 (MCF7 [11]): 1.2
Ratio IC50 (HepG2 [12]): 1.2

COc1ccc(C(=O)CN2C(=O)CN(/N=C/c3ccc([N+](=O)[O-])o3)C2=O)cc1
IC50 at 72 h [1]: 140 nM
MNTC at 72 h [2]: 26 nM
pIC50 (Caco-2 [3]): 6.98
Ratio IC50 [4]: 1.37
pIC50 (MCF7 [5]): 6.70
selectivity ratio [6]: 0.706
pIC50 (HeLa [7]): 7.06
selectivity ratio [8]: 1.61
pIC50 (HepG2 [9]): 6.83
selectivity ratio [10]: 0.948
Ratio IC50 (MCF7 [11]): 1.2
Ratio IC50 (HepG2 [12]): 1.2

Cc1ccc(-n2cc(CN3C(=O)CN(/N=C/c4ccc([N+](=O)[O-])o4)C3=O)nn2)cc1
IC50 at 72 h [1]: 232 nM
MNTC at 72 h [2]: 27 nM
pIC50 (Caco-2 [3]): 6.95
Ratio IC50 [4]: 2.05
pIC50 (MCF7 [5]): 6.84
selectivity ratio [6]: 1.6
pIC50 (HeLa [7]): 7.23
selectivity ratio [8]: 3.92
pIC50 (HepG2 [9]): 6.55
selectivity ratio [10]: 0.824
Ratio IC50 (MCF7 [11]): 1.2

O=C1CN(/N=C/c2ccc([N+](=O)[O-])o2)C(=O)N1Cc1ccc(Br)cc1
IC50 at 72 h [1]: 119 nM
MNTC at 72 h [2]: 32 nM
pIC50 (MCF7 [5]): 7.10
selectivity ratio [6]: 1.5
pIC50 (HeLa [7]): 6.74
selectivity ratio [8]: 0.65
pIC50 (HepG2 [9]): 7.17
selectivity ratio [10]: 1.78
Ratio IC50 (MCF7 [11]): 1.2
Ratio IC50 (HepG2 [12]): 1.2

O=C1CN(/N=C/c2ccc([N+](=O)[O-])o2)C(=O)N1Cc1cn(-c2ccc(Cl)cc2)nn1
IC50 at 72 h [1]: 150 nM
MNTC at 72 h [2]: 29 nM
pIC50 (Caco-2 [3]): 7.11
Ratio IC50 [4]: 1.95
pIC50 (MCF7 [5]): 7.07
selectivity ratio [6]: 1.77
pIC50 (HeLa [7]): 7.11
selectivity ratio [8]: 1.92
pIC50 (HepG2 [9]): 6.40
selectivity ratio [10]: 0.376
Ratio IC50 (MCF7 [11]): 1.2
Activity (Caco-2 [22]): Active
Activity (MCF7 [23]): Active

Cc1ccc(C(=O)CN2C(=O)CN(/N=C/c3ccc([N+](=O)[O-])o3)C2=O)cc1
IC50 at 72 h [1]: 180 nM
MNTC at 72 h [2]: 33 nM
pIC50 (Caco-2 [3]): 6.85
Ratio IC50 [4]: 1.28
pIC50 (MCF7 [5]): 6.59
selectivity ratio [6]: 0.706
pIC50 (HeLa [7]): 6.94
selectivity ratio [8]: 1.58
pIC50 (HepG2 [9]): 6.54
selectivity ratio [10]: 0.628

O=C1CN(/N=C/c2ccc([N+](=O)[O-])o2)C(=O)N1Cc1ccc([N+](=O)[O-])cc1
IC50 at 72 h [1]: 181 nM
MNTC at 72 h [2]: 9 nM
pIC50 (Caco-2 [3]): 6.99
Ratio IC50 [4]: 1.75
pIC50 (MCF7 [5]): 6.99
selectivity ratio [6]: 1.77
pIC50 (HeLa [7]): 6.92
selectivity ratio [8]: 1.51
pIC50 (HepG2 [9]): 6.90
selectivity ratio [10]: 1.42
Ratio IC50 (MCF7 [11]): 1.2
Ratio IC50 (HepG2 [12]): 1.2

O=C(CN1C(=O)CN(/N=C/c2ccc([N+](=O)[O-])o2)C1=O)c1ccccc1
IC50 at 72 h [1]: 226 nM
MNTC at 72 h [2]: 19 nM
pIC50 (Caco-2 [3]): 7.14
Ratio IC50 [4]: 3.08
pIC50 (MCF7 [5]): 7.12
selectivity ratio [6]: 2.98
pIC50 (HepG2 [9]): 6.56
selectivity ratio [10]: 0.824
Ratio IC50 (MCF7 [11]): 1.2

O=C1CN(/N=C/c2ccc([N+](=O)[O-])o2)C(=O)N1Cc1ccccc1
IC50 at 72 h [1]: 216 nM
MNTC at 72 h [2]: 33 nM
pIC50 (Caco-2 [3]): 6.74
Ratio IC50 [4]: 1.19
pIC50 (MCF7 [5]): 6.95
selectivity ratio [6]: 1.92
pIC50 (HeLa [7]): 6.89
selectivity ratio [8]: 1.68
pIC50 (HepG2 [9]): 6.92
selectivity ratio [10]: 1.82
Ratio IC50 (MCF7 [11]): 1.2
Ratio IC50 (HepG2 [12]): 1.2

COc1cccc2c1C(=O)c1c(O)c3c(c(O)c1C2=O)C[C@@](O)(C(=O)CO)C[C@@H]3O[C@H]1C[C@H](N)[C@H](O)[C@H](C)O1
Activity (dsDNA [24]): 65.4
Activity (dsDNA [25]): 218
Activity (dsDNA [26]): 15.2

O=C1CN(/N=C/c2ccc([N+](=O)[O-])o2)C(=O)N1Cc1cn(-c2ccc(S(=O)(=O)Nc3nccs3)cc2)nn1
IC50 at 72 h [1]: 87.9 nM
MNTC at 72 h [2]: 32 nM
pIC50 (Caco-2 [3]): 7.06
Ratio IC50 [4]: 1.01
pIC50 (MCF7 [5]): 6.92
selectivity ratio [6]: 0.727
pIC50 (HeLa [7]): 6.97
selectivity ratio [8]: 0.813
pIC50 (HepG2 [9]): 7.15
selectivity ratio [10]: 1.23
Ratio IC50 (MCF7 [11]): 1.2
Ratio IC50 (HepG2 [12]): 1.2

O=C(CN1C(=O)CN(/N=C/c2ccc([N+](=O)[O-])o2)C1=O)c1ccc(Br)cc1
IC50 at 72 h [1]: 240 nM
MNTC at 72 h [2]: 66 nM
pIC50 (Caco-2 [3]): 7.11
Ratio IC50 [4]: 3.05
pIC50 (MCF7 [5]): 6.98
selectivity ratio [6]: 2.31
pIC50 (HeLa [7]): 7.01
selectivity ratio [8]: 2.47
pIC50 (HepG2 [9]): 6.54
selectivity ratio [10]: 0.83
Ratio IC50 (MCF7 [11]): 1.2
